Measurements: patent US10041047B2, “Compositions and methods for epithelial stem cell expansion and culture” (The Brigham and Women's Hospital, Inc., priority 2013, dated 2018)

How the values were obtained:
[1] = tested on: Lgr5+ stem cells in small intestinal crypts; test: Small intestinal crypt culture from Lgr5-GFP mice in Matrigel: cell proliferation and Lgr5-GFP expression; assay type: cell-based, mouse; settings: for effect to promote GFP expression: HDAC inhibitor added to ENR-C condition, 6 day crypt cultures, compared with VPA
Description: Crypts and single Lgr5-GFP cells were isolated as previously described (Sato et al., 2009). Briefly, the proximal half of the small intestine was harvested, opened longitudinally, and washed with cold PBS to remove luminal content. The tissue was then cut into 2-4 mm pieces with scissors and further washed 5-10 times with cold PBS by pipetting up and down using a 10-ml pipette. Tissue fragments were incubated with 2 mM EDTA in PBS for 30 min on ice. After removal of EDTA, tissue fragments were washed with PBS to release crypts. Supernatant fractions enriched in crypts were collected, passed through a 70 μm cell strainer and centrifuged at 300 g for 5 minutes. The cell pellet was re-suspended with cell culture media without growth factors and centrifuged at 150 g to remove single cells. Crypts were then cultured or used for single cell isolation. To obtain single cells, crypts were incubated in culture medium for 45 minutes at 37° C. and triturated with a glass pipette. Dissociated cells were passed through 20 μm cell strainer, negative stained with propidium iodide and single viable GFP-high cells were sorted by flow cytometry (FACS Aria, BD) as previously described (Sato et al., 2009). Small intestinal crypts isolated from Lgr5-EGFP-ires-CreERT2 mice were embedded in Matrigel and cultured under conventional culture conditions in the presence of EGF, Noggin and R-spondin 1 (collectively referred to as ENR) leading to organoids with crypts and villus-like domains and GFP^+ cells at the crypt tips, consistent with previous reports (Sato et al., 2009). Isolated crypts or single cells were cultured as previously described (Sato et al., 2009) with minimal modification. Briefly, crypts or single cells were entrapped in Matrigel and plated at the center of wells in a 24-well plate. After polymerization of Matrigel (growth factor reduced; BD Bioscience), 500 μl of culture medium (Advanced DMEM/F12 (Life Technologies)) was added containing growth factors including EGF (50 ng/ml, Life Technologies), Noggin (100 ng/ml, Peprotech) and R-spondin 1 (500 ng/ml, R&D) and small molecules including CHIR99021 (3 μM, Stemgent) and Valproic Acid (1 mM, Sigma-Aldrich). For comparison of different culture conditions, small molecules or growth factors were added to freshly isolated crypts immediately after plating in Matrigel to test the ability to minimize potential differentiation of the ISC within the crypts and thus sustain crypt cultures. Cell culture media was changed every other day. For single cell culture, cells were embedded in Matrigel containing Jagged-1 peptide (1 μM; AnaSpec) and Y-27632 (10 μM; Tocris) was added for the first 2 days. Cells were passaged either as cell colonies as previously described (Sato et al., 2009) or as single cells. For single cell passage, cell culture medium was removed and Accutase (Life Technologies) was added. After incubation at 37° C. for 10-20 minutes, cell colonies were dissociated into single cells by pipetting. Cells were then washed, embedded in fresh Matrigel and plated into 24-well plates. Cells cultured in the CV condition were passaged every 6 days at a 1:20 split ratio. Approximately half of the cultured crypts contained GFP+ cells, which is consistent with the in vivo GFP expression of Lgr5-GFP mice (FIG. 1).
The growth factors used in the ENR condition provide essential, but not adequate cues to sustain the self-renewal of Lgr5^+ stem cells. To identify factors essential to maintaining the self-renewal status of intestinal stem cells, selected small molecules that modulate signaling pathways of ISCs, such as Wnt, Notch, and BMP, were tested under the ENR condition, using the Lgr5-GFP reporter.
CHIR is a highly-specific GSK3 inhibitor that activates the Wnt/β-catenin signaling pathway (Bain et al., 2007), and has been used to maintain the self-renewal state of embryonic stem cells (Ying et al., 2008). […]

Lgr5+ stem cells = test: Controlled differentiation of Lgr5+ stem cells after CV culture (RT-PCR and staining of differentiation markers); assay type: cell-based, mouse; settings: colonies from 6 days CV, then 4 days with ENR plus agents (FIG. 7B)
[2] = tested on: human small intestinal crypts; test: Culture of human small intestinal crypts: LGR5 expression (RT-PCR) and cell number; assay type: cell-based
Excerpt: Human small intestinal crypts were isolated from a resected normal small intestinal specimen and cultured as described in Example 1. The same cell culture solutions used in the culture of mouse small intestinal stem cells/crypts, which comprise a combination of CHIR99021 and VPA or Tubastatin A added to the ENR (EGF, Noggin, R-Spondin 1) condition, were compared to published cell culture solutions for human intestinal stem cells/crypts (Jung et al., 2011; Sato et al., 2011). RT-PCR was used to assess the maintenance of epithelial stem cells in the culture, specifically by determining the self-renewal or differentiation status. LGR5 was used as a stem cell marker and ALPI, MUC2, CHGA and LYZ were used as differentiation markers. Cell growth was assessed by counting the cell number in the cultures and by observing the morphology and size of colonies.

[3] = tested on: Lgr5+ stem/progenitor cells derived from the mouse inner ear; test: Culture of inner ear (cochlear) Lgr5-GFP epithelial cells in Matrigel; assay type: cell-based; settings: 8 day cultures; for cell proliferation on addition of a growth factor: EGF added to CV, others added to EGF+CV (FIG. 14D); for GFP expression on addition of a growth factor: added to EGF+CV or to the EGF+bFGF combination (FIG. 14D, 14E)
Excerpt: The same culture condition (EGF, Noggin, R-spondin1, or “ENR”) as used in Lgr5+ small intestinal stem cell cultures was first established.
Isolated organ of Corti from Lgr5-GFP mice were dissociated into single cells using accutase and cultured in multiple combinations of soluble factors and small molecules in Matrigel for 8 days. The resulting cultures were further dissociated into single cells and analyzed using FACS. […] In addition, the combination of EGF, bFGF and IGF-1 (designated as EFI) improved cell proliferation and GFP expression compared with the ENR condition (FIG. 14A-14C).
To further investigate the effects of individual growth factors when combined with CHIR and VPA, growth factors including Mitogenic growth factors (EGF, bFGF and IGF-1) as well as the Wnt agonist R-spondin 1 in combination with CHIR and VPA were tested.

[4] = ENR-C condition with DAPT 5 μM, 3 days
[5] = combined with CHIR or Wnt3a, crypts 6 days (FIG. 9F)
[6] = multiple concentrations (FIG. 9E)

## C[C@H](NC(=O)Cc1cc(F)cc(F)c1)C(=O)N[C@H](C(=O)OC(C)(C)C)c1ccccc1 [DAPT, N-[N-(3,5-Difluorophenacetyl)-L-alanyl]-S-phenylglycine t-butyl ester]
[1]; [4]
  GFP expression: impaired
  cell proliferation: impaired
Lgr5+ stem cells
  Alpi expression: induced expression
  ChgA expression: greatly elevated
  Lgr5 expression: decreased
  Lysozyme expression: greatly elevated
  Muc2 expression: greatly elevated

## NC(=O)c1cccnc1 [Nicotinamide]
[1]
  effect to promote GFP expression: no or only moderate effects
[1]; [5]
  GFP expression: did not promote
  cell proliferation: did not promote
[2]; added to ENR (or to the CHIR+VPA condition), RT-PCR
  expression of stem cell marker LGR5: without great impact
[2]; cell numbers at day 9 after seeding (FIG. 25A)
  proliferation of human small intestinal crypts (cell number): increased the proliferation

## CC(/C=C/C(=O)NO)=C\[C@@H](C)C(=O)c1ccc(N(C)C)cc1 [TSA, Trichostatin A]
[1]; [6]
  GFP expression at multiple concentrations: maintained GFP expression
  cell proliferation at higher concentration: marked proliferation inhibition effect

## Cn1c(/C=C/C(=O)NO)ccc1/C=C/C(=O)c1cccc(F)c1 [MC1568]
[1]
  effect to promote GFP expression: no or only moderate effects

## O=C(CCCCCCC(=O)NO)NO [SBHA, Suberohydroxamic acid]
[1]
  effect to promote GFP expression: no or only moderate effects

## EGF: Epidermal Growth Factor
[1]; crypts 6 days in the CV condition (CHIR 3 μM, VPA 1 mM)
  requirement of growth factor to maintain self-renewal of Lgr5+ stem cells: could be removed from the culture without impacting maintenance
[1]; growth factor in the CV condition, 6 days
  proliferation of crypts: promoted the proliferation
[3]
  cell proliferation on addition of a growth factor: greatly increased

## IGF-1: mitogenic growth factor
[3]
  GFP expression on addition of a growth factor: slightly increased

## CC(=O)Nc1ccc(C(=O)Nc2ccccc2N)cc1 [CI-994]
[1]
  effect to promote GFP expression: no or only moderate effects

## Nc1ccccc1NC(=O)c1ccc(CNC(=O)OCc2cccnc2)cc1 [MS275]
[1]
  effect to promote GFP expression: no or only moderate effects

## bFGF: mitogenic growth factor
[3]
  cell proliferation on addition of a growth factor: further increased
  GFP expression on addition of a growth factor: further increased

## CCCC(=O)[O-].[Na+] [Butyrate, Sodium butyrate]
[1]
  effect to promote GFP expression: no or only moderate effects

## Cc1ccc2nc(NC(=O)CSc3nc4c(c(=O)n3-c3ccccc3)SCC4)sc2c1 [IWP-2, N-(6-Methyl-2-benzothiazolyl)-2-[(3,4,6,7-tetrahydro-4-oxo-3-phenylthieno[3,2-d]pyrimidin-2-yl)thio]-acetamide]
Lgr5+ stem cells
  Alpi expression: preferentially induced
  ChgA expression: modestly elevated
  Lgr5 expression: completely abolished
  Lysozyme expression: completely abolished
  Muc2 expression: modestly elevated
